Experimental data published in PubChem BioAssay AID248 (DTP/NCI, 2004).
“And” between values parts separate entries of the source, which are not always exact repeats. Identical values can stand only once. Inconclusive results and toxic doses are left out. Rule as the data show it: active = T/C of 150% or more; inactive = T/C below 125%.

System: L1210 leukemia ip in BDF1 mice, survival T/C
Test: NCI In Vivo Anticancer Drug Screen. Data for tumor model L1210 Leukemia (intraperitoneal) in B6D2F1 (BDF1) mice
Details: endpoint: mean survival time, higher = longer survival
Procedure, shortened: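 Survival endpoint. Drug-treated group vs vehicle group, expressed as T divided by C. Tumor passaged by transplantation.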

[1] = dose: 100.0 mg/kg/injection, schedule: Q04DX002 (ip), vehicle: Klucel (hydroxypropylcellulose) (HPC)
[2] = dose: 100.0 mg/kg/injection, schedule: Q04DX003 (ip), vehicle: Klucel (hydroxypropylcellulose) (HPC)
[3] = dose: 200.0 mg/kg/injection, schedule: Q04DX002 (ip), vehicle: Klucel (hydroxypropylcellulose) (HPC)
[4] = dose: 200.0 mg/kg/injection, schedule: Q04DX003 (ip), vehicle: Klucel (hydroxypropylcellulose) (HPC)
[5] = dose: 400.0 mg/kg/injection, schedule: Q04DX002 (ip), vehicle: Klucel (hydroxypropylcellulose) (HPC)
[6] = dose: 400.0 mg/kg/injection, schedule: Q04DX003 (ip), vehicle: Klucel (hydroxypropylcellulose) (HPC)
[7] = dose: 100.0 mg/kg/injection, schedule: Q04DX002 (ip), vehicle: saline with Tween-80
[8] = dose: 200.0 mg/kg/injection, schedule: Q04DX002 (ip), vehicle: saline with Tween-80
[9] = dose: 400.0 mg/kg/injection, schedule: Q04DX002 (ip), vehicle: saline with Tween-80
[10] = dose: 50.0 mg/kg/injection, schedule: Q01DX001 (ip), vehicle: carboxymethylcellulose (CMC)
[11] = dose: 100.0 mg/kg/injection, schedule: Q01DX001 (ip), vehicle: carboxymethylcellulose (CMC)
[12] = dose: 200.0 mg/kg/injection, schedule: Q01DX001 (ip), vehicle: carboxymethylcellulose (CMC)
[13] = dose: 6.25 mg/kg/injection, schedule: Q01DX009 (ip), vehicle: saline
[14] = dose: 12.5 mg/kg/injection, schedule: Q01DX009 (ip), vehicle: saline
[15] = dose: 25.0 mg/kg/injection, schedule: Q01DX009 (ip), vehicle: saline
[16] = dose: 100.0 mg/kg/injection, schedule: Q01DX009 (ip), vehicle: saline with Tween-80
[17] = dose: 200.0 mg/kg/injection, schedule: Q01DX009 (ip), vehicle: saline with Tween-80
[18] = dose: 400.0 mg/kg/injection, schedule: Q01DX009 (ip), vehicle: saline with Tween-80

Measured: T/C

COc1ccc([N+](=O)[O-])cc1NC(=O)Nc1cc(C)on1
inactive: dose: 100.0 mg/kg/injection, schedule: Q01DX001 (ip), vehicle: Klucel (hydroxypropylcellulose) (HPC) 91 % of control | dose: 100.0 mg/kg/injection, schedule: Q01DX009 (ip), vehicle: Klucel (hydroxypropylcellulose) (HPC) 96 % of control and 87 % of control | [1] 103 % of control and 91 % of control | [2] 92 % of control | dose: 200.0 mg/kg/injection, schedule: Q01DX001 (ip), vehicle: Klucel (hydroxypropylcellulose) (HPC) 95 % of control | dose: 200.0 mg/kg/injection, schedule: Q01DX009 (ip), vehicle: Klucel (hydroxypropylcellulose) (HPC) 98 % of control and 91 % of control | [3] 97 % of control and 91 % of control | [4] 89 % of control | dose: 400.0 mg/kg/injection, schedule: Q01DX001 (ip), vehicle: Klucel (hydroxypropylcellulose) (HPC) 86 % of control | dose: 400.0 mg/kg/injection, schedule: Q01DX009 (ip), vehicle: Klucel (hydroxypropylcellulose) (HPC) 95 % of control and 98 % of control | [5] 97 % of control | [6] 96 % of control

CCOC(=O)c1ccc(N(N=O)C(C)C)cc1
inactive: [7] 101 % of control | [8] 86 % of control | [9] 97 % of control

CC(C)CCc1c(N)nc(N)nc1N
inactive: dose: 25.0 mg/kg/injection, schedule: Q04DX003 (ip), vehicle: Klucel (hydroxypropylcellulose) (HPC) 93 % of control | dose: 50.0 mg/kg/injection, schedule: Q04DX003 (ip), vehicle: Klucel (hydroxypropylcellulose) (HPC) 96 % of control

CCCCC(CCCC)CCCC
inactive: [7] 97 % of control | [8] 106 % of control | [9] 103 % of control

CC(=O)C=P(c1ccccc1)(c1ccccc1)c1ccccc1
inactive: [10] 113 % of control | [11] 97 % of control | [12] 101 % of control

CCc1c(Nc2ccc(C)c(C)c2)[nH]c(N)nc1=S
inactive: dose: 100.0 mg/kg/injection, schedule: Q01DX Z (ip), vehicle: methylcellulose (MC) 87 % of control | dose: 200.0 mg/kg/injection, schedule: Q01DX Z (ip), vehicle: methylcellulose (MC) 109 % of control

O=[N+]([O-])c1ccccc1SNc1ccc(NSc2ccccc2[N+](=O)[O-])cc1
inactive: dose: 3.13 mg/kg/injection, schedule: Q01DX001 (ip), vehicle: saline with Tween-80 105 % of control | dose: 6.25 mg/kg/injection, schedule: Q01DX001 (ip), vehicle: saline with Tween-80 100 % of control | dose: 12.5 mg/kg/injection, schedule: Q01DX001 (ip), vehicle: saline with Tween-80 97 % of control

N#Cc1ccc[n+](CCCl)c1
inactive: dose: 30.0 mg/kg/injection, schedule: Q01DX Z (ip), vehicle: saline 95 % of control

OC(CCN1CCOCC1)c1cc2ccccc2o1 (stereo unspecified)
inactive: dose: 75.0 mg/kg/injection, schedule: Q04DX003 (ip), vehicle: saline with Tween-80 102 % of control | dose: 150.0 mg/kg/injection, schedule: Q04DX003 (ip), vehicle: saline with Tween-80 100 % of control

Ic1ccc2c(c1)OCCOCCOCCOCCO2
inactive: dose: 50.0 mg/kg/injection, schedule: Q04DX002 (ip), vehicle: saline with Tween-80 102 % of control | [7] 102 % of control | [8] 107 % of control

COc1ccc(NC(=O)Nc2cccc(C(F)(F)F)c2)c(OC)c1
inactive: dose: 100.0 mg/kg/injection, schedule: Q01DX009 (ip), vehicle: gum acacia 102 % of control | dose: 200.0 mg/kg/injection, schedule: Q01DX009 (ip), vehicle: gum acacia 98 % of control | dose: 400.0 mg/kg/injection, schedule: Q01DX009 (ip), vehicle: gum acacia 101 % of control

S=C(Sc1nc2ccccc2s1)Sc1nc2ccccc2s1
inactive: [1] 105 % of control | [3] 94 % of control | [5] 101 % of control

O=S(=O)(CC(Cl)c1ccccc1)c1ccccc1 (stereo unspecified)
inactive: dose: 100.0 mg/kg/injection, schedule: Q01DX001 (ip), vehicle: acetone 95 % of control | dose: 100.0 mg/kg/injection, schedule: Q01DX009 (ip), vehicle: saline 91 % of control | dose: 200.0 mg/kg/injection, schedule: Q01DX001 (ip), vehicle: acetone 98 % of control | dose: 200.0 mg/kg/injection, schedule: Q01DX009 (ip), vehicle: saline 94 % of control | dose: 400.0 mg/kg/injection, schedule: Q01DX001 (ip), vehicle: acetone 92 % of control | dose: 400.0 mg/kg/injection, schedule: Q01DX009 (ip), vehicle: saline 89 % of control

CN1CCc2c3n(c4ccccc24)C(=O)CCC31 (stereo unspecified)
inactive: [13] 106 % of control | [14] 101 % of control | [15] 104 % of control

CCC(C)C1CC1(Br)Br (stereo unspecified)
inactive: dose: 100.0 mg/kg/injection, schedule: Q04DX003 (ip), vehicle: saline with Tween-80 100 % of control | dose: 200.0 mg/kg/injection, schedule: Q04DX003 (ip), vehicle: saline with Tween-80 100 % of control | dose: 400.0 mg/kg/injection, schedule: Q04DX003 (ip), vehicle: saline with Tween-80 98 % of control

C[n+]1ccccc1/C=C/c1cccc([N+](=O)[O-])c1
inactive: dose: 5.0 mg/kg/injection, schedule: Q04DX003 (ip), vehicle: saline with Tween-80 101 % of control | dose: 10.0 mg/kg/injection, schedule: Q04DX003 (ip), vehicle: saline with Tween-80 90 % of control | dose: 20.0 mg/kg/injection, schedule: Q04DX003 (ip), vehicle: saline with Tween-80 100 % of control

CCOC(=O)C(C(=O)Nc1ccccc1)=S(C)C
inactive: [1] 94 % of control | [3] 106 % of control | [5] 116 % of control

N#C/C=C/c1cccc([N+](=O)[O-])c1
inactive: [16] 102 % of control | [17] 93 % of control | [18] 98 % of control

COc1ccc(NC(=O)Nc2ccc(F)c([N+](=O)[O-])c2)c(Cl)c1
inactive: dose: 25.0 mg/kg/injection, schedule: Q01DX009 (ip), vehicle: saline with Tween-80 95 % of control | dose: 50.0 mg/kg/injection, schedule: Q01DX009 (ip), vehicle: saline with Tween-80 100 % of control | [16] 96 % of control

C[N+]1(C)CCCC1
inactive: [13] 103 % of control | [14] 102 % of control | dose: 12.5 mg/kg/injection, schedule: Q04DX003 (ip), vehicle: saline 86 % of control | [15] 109 % of control | dose: 25.0 mg/kg/injection, schedule: Q04DX003 (ip), vehicle: saline 91 % of control | dose: 50.0 mg/kg/injection, schedule: Q04DX003 (ip), vehicle: saline 95 % of control

CCCC#CC(=O)OCCCCC
inactive: dose: 100.0 mg/kg/injection, schedule: Q04DX002 (ip), vehicle: saline 108 % of control | dose: 200.0 mg/kg/injection, schedule: Q04DX002 (ip), vehicle: saline 94 % of control | dose: 400.0 mg/kg/injection, schedule: Q04DX002 (ip), vehicle: saline 105 % of control

COc1cc(C=O)cc(C=O)c1O
inactive: dose: 25.0 mg/kg/injection, schedule: Q01DX001 (ip), vehicle: saline with Tween-80 96 % of control | dose: 50.0 mg/kg/injection, schedule: Q01DX001 (ip), vehicle: saline with Tween-80 104 % of control | dose: 100.0 mg/kg/injection, schedule: Q01DX001 (ip), vehicle: saline with Tween-80 90 % of control

C[N+](C)(C)C12CCCCC1S(=O)(=O)C2 (stereo unspecified)
inactive: dose: 75.0 mg/kg/injection, schedule: Q01DX001 (ip), vehicle: saline 108 % of control

C/C(=N/O)c1ccccc1NO
inactive: dose: 25.0 mg/kg/injection, schedule: Q01DX001 (ip), vehicle: carboxymethylcellulose (CMC) 89 % of control | [10] 94 % of control | [11] 96 % of control | [12] 91 % of control | dose: 400.0 mg/kg/injection, schedule: Q01DX001 (ip), vehicle: carboxymethylcellulose (CMC) 86 % of control

COC(=O)C12N=NN(c3ccccc3)C1(C(=O)OC)C1CCC2C1 (stereo unspecified)
inactive: [16] 106 % of control | [2] 96 % of control | [17] 94 % of control | [4] 102 % of control | [18] 98 % of control | [6] 97 % of control

C1C2CC3CC1CC(C2)C31CO1 (stereo unspecified)
inactive: [1] 90 % of control | [3] 90 % of control | [5] 105 % of control
